The text below walks through data of US20160220738A1, “PROGESTERONE-CONTAINING COMPOSITIONS AND DEVICES” (priority 2007, published 2016).

Entries after “also recorded” stand apart in the source; their conditions may differ.

Assay [1] relates to human aortic endothelial cells (HAEC) or U937 monocytic cells. The following applies: d-alpha-tocopherol 20, 40, 60 micromol/l for 20 h, IL-1beta stimulated; cited from earlier work.
Assay [2] deals with HAEC. The conditions noted are these: cited from earlier work.
The subject of assay [3] is platelet suspensions or whole blood. The following applies: in vitro; cited from earlier work.
The subject of assay [4] is ECs. The following applies: cited from earlier work.
Assay [5] relates to vascular SMCs. The following applies: cited from earlier work.
Assay [6] concerns human aortic smooth muscle cells. The assay is described as follows: Human aortic smooth muscle cell proliferation (Example 10). Type of assay: cell-based. The following applies: HASMC, progesterone 10 μg/ml; for smooth muscle cell proliferation (in words): up to 8 days. As for the experimental part:
For cell cultures grown longer than 3 days, culture medium was changed twice weekly, according to standard protocols in the art, and included antibiotics and other standard additives as appropriate.
(§1) Cell cultures were maintained at 37° C. in an atmosphere containing 5% carbon dioxide. Appropriate precautions were taken to prevent accelerated breakdown, including protection of the cell cultures from light.
At each timepoint, triplicate samples were analyzed via growth measurements. The rate of cell proliferation was assayed by counting the number of cells across the 8 day growth period. Absolute cell density was measured with a Coulter Counter. Cell viability was determined by trypan blue staining.

Assay [7] relates to human coronary smooth muscle cell (HCSMC). The assay is described as follows: Human coronary smooth muscle cell proliferation (Example 14). The class given is cell-based. The following applies: for difference in growth of progesterone treated SMC versus control: 30 μg/ml; for Average Number of Cells/dish / SMC proliferation (in words): HCSMC, progesterone 30 μg/ml; for SMC proliferation (in words): days 1, 3, 5. As for the experimental part: In addition, cells will be grown for 5 and 7 days. For cell cultures grown longer than 3 days, culture medium is changed twice weekly, according to standard protocols in the art, and includes antibiotics and other standard additives as appropriate.
as §1
Cultured human coronary endothelial and smooth muscle cells were obtained from commercial services. […] Dilutions were prepared using ethanol such that the total quantity of ethanolic drug volume added to any experimental culture was 10 μL. For proliferation and apoptosis studies, EC or SMC was seeded in multiple culture wells at a density of 5,000 cells/cm^2. […] Cell counts were conducted at days 1, 3, and 5 and will be conducted at day 7, using a Coulter counter. From these counts, the influence of the drug concentration on cell growth rate was calculated.
Sampling and analysis of SMC is performed as follows. At each time point, triplicate samples are analyzed for growth measurements. The rate of cell proliferation is assayed by counting the number of cells across the 8 day growth period. Absolute cell density is measured with a Coulter Counter. Cell viability is determined by a live-dead cell apoptosis assay (Molecular Probes, Inc.).

Assay [8] concerns human coronary endothelial cells (HCEC). The assay is described as follows: Human coronary endothelial cell growth (Example 14). The class given is cell-based. As for the experimental part: In addition, cells will be grown for 5 and 7 days. For cell cultures grown longer than 3 days, culture medium is changed twice weekly, according to standard protocols in the art, and includes antibiotics and other standard additives as appropriate. […] Addition of the progesterone-treated or control (untreated) medium to the cells was counted as day 0. […] Cell cultures were maintained at 37° C. in an atmosphere containing 5% carbon dioxide. Appropriate precautions were taken to prevent accelerated breakdown, including protection of the cell cultures from light. Cultured human coronary endothelial and smooth muscle cells were obtained from commercial services. […] Dilutions were prepared using ethanol such that the total quantity of ethanolic drug volume added to any experimental culture was 10 μL. For proliferation and apoptosis studies, EC or SMC was seeded in multiple culture wells at a density of 5,000 cells/cm^2. […] Cell counts were conducted at days 1, 3, and 5 and will be conducted at day 7, using a Coulter counter. From these counts, the influence of the drug concentration on cell growth rate was calculated. Sampling and analysis of endothelial cells is performed as follows. At each time point, triplicate samples are analyzed for growth measurements. The rate of cell proliferation is assayed by counting the number of cells across the 8 day growth period. Absolute cell density is measured with a Coulter Counter. Cell viability is determined by a live-dead cell apoptosis assay (Molecular Probes, Inc.).

Assay [9] relates to human infragenicular VSMCs. The assay is described as follows: Human infragenicular VSMC proliferation under high glucose and insulin (Example 12). Type of assay: cell-based. The following applies: progesterone 10 ng/mL, glucose 100/200 mg/dL, insulin 0/100 ng/mL, day 6. As for the experimental part:
Methods are according to 2002 J Vasc Surg 36, 833-838, except as otherwise noted.
Human infragenicular VSMCs are isolated from the tibial arteries of male patients with diabetes undergoing lower extremity amputation. Immunocytochemical studies with confocal microscopy are performed for progesterone receptor identification in these VSMCs. Cells are grown to subconfluence, followed by exposure to deprived media with various glucose (100 and 200 mg/dL) and insulin (no insulin and 100 ng/mL) concentrations. […] Cell count and methyl-3H-thymidine incorporation are used to determine cellular proliferation. Cell count with hemocytometry is performed on day 6. DNA synthesis as reflected through methyl-3H-thymidine incorporation is measured at 24 hours.

For assay [10], the system named is V189 (VEGF189). The conditions noted are these: perivascular decidual endometrial cells, mid-late secretory phase and early gestation; cited from earlier work.
Assay [11] deals with primary astrocyte cultures. The assay is described as follows: Glucose transport inhibition in astrocytes (Example 13). The conditions noted are these: 24 hours exposure. Type of assay: cell-based, rat.

Turning to `Cc1c(C)c2c(c(C)c1O)CC[C@@](C)(CCC[C@H](C)CCC[C@H](C)CCCC(C)C)O2` [vitamin E, d-alpha-tocopherol], the “adhesion of HAEC and U937 monocytic cells” value in [1] was “inhibited their adhesion”. Also, in assay [2] (20, 40, 60 micromol/l), the “IL-1beta-induced productions of MCP-1 and IL-8” value is given as “dose-dependently suppressed”; the “IL-1beta-stimulated expression of ICAM-1, VCAM-1 and E-selectin” value is listed as “suppressed”. Also, the IL-8 production entry in [2] (60 micromol/l) is “reduced IL-8 production significantly”. Moreover, in assay [2] (at the doses used), the “IL-1beta-induced production of IL-6” value was “dose-dependently inhibited” and the “spontaneous production of IL-6” value is given as “did not significantly change”. Further, the “spontaneous production of MCP-1” value in assay [2] (up to 60 micromol/l) is listed as “not effective”.

On to `CCCCCC/C=C/C=C\CCCCCCCC(=O)O` [C18:2c9t11, rumenic acid], for which the platelet aggregation entry in assay [3] is on record as “inhibit platelet aggregation”. In assay [4], the “EC production of PAF” value is given as “inhibit EC production of PAF”. In addition, in assay [5], the “secretion of eicosanoids (PGI2 and PGE2)” value is “attenuate secretion of eicosanoids”.

With `CC(=O)[C@H]1CC[C@H]2[C@@H]3CCC4=CC(=O)CC[C@]4(C)[C@H]3CC[C@]12C` [Progesterone, pregn-4-ene-3,20-dione], the “Average number of cells per dish” value in assay [6] (day 1) worked out at 7902 cells per dish; in [6] (day 3), 14871 cells per dish; in [6] (day 6), 17618 cells per dish; in [6] (day 8), 20018 cells per dish. Also, the “smooth muscle cell proliferation (in words)” value is “decrease SMC's compared to control in a dose response fashion” in assay [6] and “inhibited smooth muscle cell proliferation” in assay [6] (listed as progesterone). The “difference in growth of progesterone treated SMC versus control” value in assay [7] (day 1, inhibition) worked out at 12.1%; in [7] (day 3, inhibition), 20.8%; in [7] (day 5, inhibition), 53.7%. Moreover, the “Average Number of Cells/dish” value in assay [7] (day 1) amounted to 7092 Cells/dish; in [7] (day 3), 9492 Cells/dish; in assay [7] (day 5) it was 10844 Cells/dish; in [8] (HCEC, progesterone 30 μg/ml, day 1), 6207 Cells/dish; in assay [8] (HCEC, progesterone 30 μg/ml, day 3), 7227 Cells/dish; in assay [8] (HCEC, progesterone 30 μg/ml, day 5), 8658 Cells/dish. The “SMC proliferation (in words)” value in [7] was “decrease SMC's compared to control in a dose response fashion”; in assay [7] (listed as progesterone), “showed inhibition of SMC on the first day of treatment; also recorded: inhibits SMC proliferation”. For the same compound, the “increase in growth of the progesterone treated EC versus control” value in [8] (30 μg/ml, day 1) was 5.3%. Besides, the “difference in growth of progesterone treated EC versus control” value is on record as 27.5% in assay [8] (30 μg/ml, day 3, increase) and 29.3% in [8] (30 μg/ml, day 5, increase). Moreover, the “endothelial cell growth (in words)” value in assay [8] (HCEC, progesterone 30 μg/ml, days 1, 3, 5) was “promoted growth of the EC both on the first and third days; also recorded: enhanced endothelial cell growth; also recorded: increases endothelial cells”. Moreover, the “cellular proliferation by cell count” value in [9] is on record as “significantly inhibited cellular proliferation”. The V189 expression result in [10] was “selectively increases”.

`C[C@]12CCC(=O)C=C1CC[C@@H]1[C@@H]2[C@@H](O)C[C@@]2(C)[C@H]1CC[C@]2(O)C(=O)CO` [cortisol]: the “concentration inhibiting glucose transport” value in assay [11] worked out at 1 µM.

Turning to `CCCCC/C=C\C=C\CCCCCCCCC(=O)O` [C18:2t10c12], in assay [3], the platelet aggregation result is given as “inhibit platelet aggregation”. In addition, the “EC production of PAF” value in assay [4] is on record as “inhibit EC production of PAF”. Besides, in assay [5], the “secretion of eicosanoids (PGI2 and PGE2)” value is “attenuate secretion of eicosanoids”.

Regarding `CCCCCC/C=C/C=C/CCCCCCCC(=O)O` [C18:2t9t11], the platelet aggregation entry in assay [3] was “inhibit platelet aggregation”.
